Experimental data taken from patent publication US4988697A, “Fungicidal compositions and method” (Merck & Co., Inc., priority 1989, dated 1991).
In brackets after ≈: the same amount, converted by molar mass.

Tests used:
Format in all cases: cell-based
[1] = system: C. miyabeamis; assay: MIC against fungal panel, C. miyabeamis
Procedure: In a manner similar to that above described for effect against Candida albicans the synergistic effect of the combination of the β-lactone compound and ketoconazole against a fungal panel was determined by plating on potato dextrose agar.
(§1) First the MIC for the β-lactone compound and the MIC for the ketoconazole were determined against an array of organisms. Thereafter, the effects on the MIC of adding 0.031, 0.125, 0.5 and 2 μg/ml of ketoconazole were determined.

[2] = system: F. oxysporium; assay: MIC against fungal panel, F. oxysporium
Procedure: as §1

[3] = system: C. albicans (Y1055); assay: MIC against fungal panel, C. albicans (Y1055)
Procedure: as §1

[4] = system: C. albicans (Y1750); assay: MIC against fungal panel, C. albicans (Y1750)
Procedure: as §1

[5] = system: C. neoformans; assay: MIC against fungal panel, C. neoformans
Procedure: as §1

[6] = system: U. zeae; assay: MIC against fungal panel, U. zeae
Procedure: as §1

[7] = system: A. niger; assay: MIC against fungal panel, A. niger
Procedure: as §1

[8] = system: Candida albicans; assay: Synergistic and fungicidal effect on exponential phase cultures (CFU/ml over time); settings: ketoconazole 1 μg/ml
Procedure: Synergistic and fungicidal effects were determined by treating exponential phase Candida albicans cultures with β-Lactone at MIC and MFC levels and ketoconazole at 0.1 μg/ml or a 1 μg/ml alone or in combination. Exponential phase cultures were prepared by diluting an overnight culture 1:50 or 1:1000 in YNB/G. After incubating the diluted cells 7 or 17 hrs. at 37° C., the exponential phase cells were diluted in YNB/G to A600 =0.0004 u/ml to obtain 3000 cfu/ml.
10 microliters (μl) of β-lactone compound or ketoconazole prepared in DMSO was added to 1 ml of diluted exponential phase cells. The tubes were incubated at 37° C. at 250 rpm for 27 hours. Periodically, aliquots were diluted in 0.9% saline and plated on Sabouraud dextrose agar plates to determine the number of cfu/ml.

[9] = system: Candida albicans MY 1055; assay: Minimum Inhibitory Concentration, broth dilution; settings: MY1055, YNB/G, 37° C., 17 hr
Procedure: 11-(3-hydroxymethyl-4-oxo-2-oxetanyl)-7-methyl-2,4-undecadienoic acid (β-lactone compound), was solubilized in 100 percent dimethylsulfoxide (DMSO). Twofold dilutions were made with DMSO to obtain final drug concentrations in the broth dilution assay tubes ranging from 0.625 to 100 μg/ml.
The Candida albicans, MY 1055, yeast culture maintained in yeast nitrogen base/glucose (1/2 percent), YNB/G, was transferred to fresh medium and incubated 7 hours at 37° with shaking at 250 rpm. After incubation, each culture was diluted to A600 =0.0004 U/ml which was previously determined to be equal to 3000 cfu/ml (colony forming units per milliliter).
1 milliliter of YNB/G inoculated with yeast culture was added to sterile test tubes. The tubes were incubated at 250 rpm, 37° C. for 17 hr. The minimum inhibitory concentrations (MIC) was recorded as the lowest concentration of drug […].

[10] = system: Candida albicans MY 1055; assay: Minimum Fungicidal Concentration, plating of MIC tubes; settings: MY1055, ≥95% reduction of viable cells, 37° C., 17 hours
Procedure: In the manner above described for the determination of minimum inhibitory concentration, broth dilution assay tubes were prepared ranging from 0.625 to 100 μg/ml and 1 milliliter of YNB/G inoculated with Candida albicans MY 1055 sterile test tubes. The tubes were incubated at 250 rpm at 37° C. for 17 hours. The minimum fungicidal concentration (MFC) was determined by serially diluting samples of MIC tubes in 0.9% saline. Aliquots were plated on Sabouraud dextrose agar. The plates were incubated at 37° for 48 hr. and the colonies counted. From the counts obtained, the number of cfu/ml in the undiluted drug-culture tube was calculated. The MFC is defined as the minimum amount of drug required to reduce the number of viable cells initially present in the drug-culture tubes greater than or equal to 95%. The MFC was 10 μg/ml.

[11] = system: Candida albicans MY 1055; assay: Effect of Azole Antifungals on the MIC'S of the β-Lactone Compound
Text: The β-lactone compound and the following conazole compounds: cis-1-acetyl-4-[4-[[2-(2,4-dichlorophenyl)-2-1H-imidazole-1-ylmethyl)-1,3- dioxolan-4-yl]-methoxyl]phenyl]piperazine (ketoconazole), α-(2,4-difluorophenyl)-α-(1H-1,4-triazol-1-ylmethyl)1H-1,2-4-triazole-1-ethanol (fluconazole and cis-4-[4-[4-[4-[[2-(2,4-dichlorophenyl)-2-(1H-1,2,4-triazole-1-ylmethyl)-1,3-dioxolan-4-yl]-methoxy] phenyl]-1-piperazinyl]phenyl-2,4-dihydro-2-(1-methylpropyl)-3H-1,2,4-triazol-3-one (itraconazole), were dissolved in DMSO and serially diluted in the manner previously described.
Assay tubes were prepared in a manner similar to that previously described and in operations carried out in a manner similar to that previously described, the effect of various conazole compounds on the MIC of the β-lactone compound were determined.

[12] = read-out: MIC, Ketoconazole Alone
[13] = Candida albicans, read-out: MIC, Ketoconazole Alone
[14] = Table 1, 2 hours, β-lactone 2.5 μg/ml, alone or combined
[15] = Table 1, 4.5 hours, β-lactone 2.5 μg/ml, alone or combined
[16] = Table 1, 7 hours, β-lactone 2.5 μg/ml, alone or combined
[17] = Table 1, 11 hours, β-lactone 2.5 μg/ml, alone or combined
[18] = Table 1, 17 hours, β-lactone 2.5 μg/ml, alone or combined
[19] = Table 1, 22 hours, β-lactone 2.5 μg/ml, alone or combined
[20] = Table 1, 27 hours, β-lactone 2.5 μg/ml, alone or combined
[21] = Table 2, 2 hours, β-lactone 10 μg/ml, alone or combined
[22] = Table 2, 4.5 hours, β-lactone 10 μg/ml, alone or combined
[23] = Table 2, 7 hours, β-lactone 10 μg/ml, alone or combined
[24] = Table 2, 11 hours, β-lactone 10 μg/ml, alone or combined
[25] = Table 2, 17 hours, β-lactone 10 μg/ml, alone or combined
[26] = Table 2, 22 hours, β-lactone 10 μg/ml, alone or combined
[27] = Table 2, 27 hours, β-lactone 10 μg/ml, alone or combined

## CC(=O)N1CCN(c2ccc(OC[C@H]3CO[C@](Cn4ccnc4)(c4ccc(Cl)cc4Cl)O3)cc2)CC1 (relative stereo) [Ketoconazole, cis-1-acetyl-4-[4-[[2-(2,4-dichlorophenyl)-2-(1H-imidazole-1-ylmethyl)-1,3-dioxolan-4-yl]methoxy]-phenyl]piperazine]
[1]; [12]
  MIC: 2 µg/mL
[2]; [12]
  MIC: > 2 µg/mL
[3]; [13]
  MIC: > 2 µg/mL
[4]; [13]
  MIC: > 2 µg/mL
[5]; Cryptococcus neoformans, read-out: MIC, Ketoconazole Alone
  MIC: > 2 µg/mL
[6]; [12]
  MIC: > 2 µg/mL
[7]; Aspergillus niger, read-out: MIC, Ketoconazole Alone
  MIC: > 2 µg/mL
[8]; Table 1, 0 hours
  Fungal Growth: 2.95 × 10^3 CFU/ML
[8]; [14]
  Fungal Growth: 5.1 × 10^3 CFU/ML
[8]; [15]
  Fungal Growth: 1.09 × 10^4 CFU/ML
[8]; [16]
  Fungal Growth: 2.40 × 10^4 CFU/ML
[8]; [17]
  Fungal Growth: 6.90 × 10^4 CFU/ML
[8]; [18]
  Fungal Growth: 1.36 × 10^5 CFU/ML
[8]; [19]
  Fungal Growth: 3.30 × 10^5 CFU/ML
[8]; [20]
  Fungal Growth: 7.20 × 10^5 CFU/ML
[8]; Table 2, 0 hours
  Fungal Growth: 2.95 × 10^3 CFU/ML
[8]; [21]
  Fungal Growth: 5.1 × 10^3 CFU/ML
[8]; [22]
  Fungal Growth: 1.09 × 10^4 CFU/ML
[8]; [23]
  Fungal Growth: 2.40 × 10^4 CFU/ML
[8]; [24]
  Fungal Growth: 6.90 × 10^4 CFU/ML
[8]; [25]
  Fungal Growth: 1.36 × 10^5 CFU/ML
[8]; [26]
  Fungal Growth: 3.30 × 10^5 CFU/ML
[8]; [27]
  Fungal Growth: 7.20 × 10^5 CFU/ML

## CC(=CC(=O)O)C=C(C)CC(C)CCCCC1OC(=O)C1CO (stereo not drawn) [β-Lactone Compound]
[9]
  MIC: 2.5 µg/mL (≈ 7.71 µM)
[1]; ketoconazole 0 μg/ml
  MIC, β-Lactone Compound in Presence of Ketoconazole: 0.78 µg/mL
[1]; ketoconazole 0.031 μg/ml
  MIC, β-Lactone Compound in Presence of Ketoconazole: 0.39 µg/mL
[1]; ketoconazole 0.123 μg/ml
  MIC, β-Lactone Compound in Presence of Ketoconazole: 0.78 µg/mL
[1]; ketoconazole 2 μg/ml
  MIC, β-Lactone Compound in Presence of Ketoconazole: N.G.
[2]; ketoconazole 0 μg/ml
  MIC, β-Lactone Compound in Presence of Ketoconazole: > 50 µg/mL
[2]; ketoconazole 0.031 μg/ml
  MIC, β-Lactone Compound in Presence of Ketoconazole: > 50 µg/mL
[2]; ketoconazole 0.123 μg/ml
  MIC, β-Lactone Compound in Presence of Ketoconazole: > 50 µg/mL
[2]; ketoconazole 0.5 μg/ml
  MIC, β-Lactone Compound in Presence of Ketoconazole: > 50 µg/mL
[2]; ketoconazole 2 μg/ml
  MIC, β-Lactone Compound in Presence of Ketoconazole: > 50 µg/mL
[3]; ketoconazole 0 μg/ml
  MIC, β-Lactone Compound in Presence of Ketoconazole: 3.125 µg/mL
[3]; ketoconazole 0.031 μg/ml
  MIC, β-Lactone Compound in Presence of Ketoconazole: 0.78 µg/mL
[3]; ketoconazole 0.123 μg/ml
  MIC, β-Lactone Compound in Presence of Ketoconazole: 0.78 µg/mL
[3]; ketoconazole 0.5 μg/ml
  MIC, β-Lactone Compound in Presence of Ketoconazole: 0.19 µg/mL
[3]; ketoconazole 2 μg/ml
  MIC, β-Lactone Compound in Presence of Ketoconazole: 0.19 µg/mL
[4]; ketoconazole 0 μg/ml
  MIC, β-Lactone Compound in Presence of Ketoconazole: 3.125 µg/mL
[4]; ketoconazole 0.031 μg/ml
  MIC, β-Lactone Compound in Presence of Ketoconazole: 0.78 µg/mL
[4]; ketoconazole 0.123 μg/ml
  MIC, β-Lactone Compound in Presence of Ketoconazole: 0.195 µg/mL
[4]; ketoconazole 0.5 μg/ml
  MIC, β-Lactone Compound in Presence of Ketoconazole: 0.19 µg/mL
[4]; ketoconazole 2 μg/ml
  MIC, β-Lactone Compound in Presence of Ketoconazole: 0.19 µg/mL
[10]
  MFC: 10 µg/mL (≈ 30.8 µM)
[5]; ketoconazole 0 μg/ml
  MIC, β-Lactone Compound in Presence of Ketoconazole: 12.5 µg/mL
[5]; ketoconazole 0.031 μg/ml
  MIC, β-Lactone Compound in Presence of Ketoconazole: 12.5 µg/mL
[5]; ketoconazole 0.123 μg/ml
  MIC, β-Lactone Compound in Presence of Ketoconazole: 3.125 µg/mL
[5]; ketoconazole 0.5 μg/ml
  MIC, β-Lactone Compound in Presence of Ketoconazole: 0.19 µg/mL
[5]; ketoconazole 2 μg/ml
  MIC, β-Lactone Compound in Presence of Ketoconazole: 0.19 µg/mL
[11]; fluconazole 0 μg/ml
  MIC of β-lactone compound: 2.5 µg/mL
[11]; itraconazole 0 μg/ml
  MIC of β-lactone compound: 2.5 µg/mL
[11]; ketoconazole 0 μg/ml
  MIC of β-lactone compound: 2.5 µg/mL
[11]; with fluconazole 0.3125 μg/ml
  MIC of β-lactone compound: 1.25 µg/mL
[11]; with fluconazole 1.25 μg/ml
  MIC of β-lactone compound: 0.625 µg/mL
[11]; with fluconazole 5.0 μg/ml
  MIC of β-lactone compound: 0.625 µg/mL
[11]; with itraconazole 0.3125 μg/ml
  MIC of β-lactone compound: 2.5 µg/mL
[11]; with itraconazole 1.25 μg/ml
  MIC of β-lactone compound: 1.25 µg/mL
[11]; with itraconazole 5.0 μg/ml
  MIC of β-lactone compound: 1.25 µg/mL
[11]; with ketoconazole 0.3125 μg/ml
  MIC of β-lactone compound: 0.625 µg/mL
[11]; with ketoconazole 1.25 μg/ml
  MIC of β-lactone compound: 0.625 µg/mL
[11]; with ketoconazole 5.0 μg/ml
  MIC of β-lactone compound: 0.625 µg/mL
[6]; ketoconazole 0 μg/ml
  MIC, β-Lactone Compound in Presence of Ketoconazole: 3.125 µg/mL
[6]; ketoconazole 0.031 μg/ml
  MIC, β-Lactone Compound in Presence of Ketoconazole: 3.125 µg/mL
[6]; ketoconazole 0.123 μg/ml
  MIC, β-Lactone Compound in Presence of Ketoconazole: 0.78 µg/mL
[6]; ketoconazole 0.5 μg/ml
  MIC, β-Lactone Compound in Presence of Ketoconazole: 0.19 µg/mL
[6]; ketoconazole 2 μg/ml
  MIC, β-Lactone Compound in Presence of Ketoconazole: 0.19 µg/mL
[7]; ketoconazole 0 μg/ml
  MIC, β-Lactone Compound in Presence of Ketoconazole: > 50 µg/mL
[7]; ketoconazole 0.031 μg/ml
  MIC, β-Lactone Compound in Presence of Ketoconazole: > 50 µg/mL
[7]; ketoconazole 0.123 μg/ml
  MIC, β-Lactone Compound in Presence of Ketoconazole: > 50 µg/mL
[7]; ketoconazole 0.5 μg/ml
  MIC, β-Lactone Compound in Presence of Ketoconazole: > 50 µg/mL
[7]; ketoconazole 2 μg/ml
  MIC, β-Lactone Compound in Presence of Ketoconazole: > 50 µg/mL
[8]; [14]
  Fungal Growth: 3.85 × 10^3 CFU/ML
[8]; [15]
  Fungal Growth: 8.80 × 10^3 CFU/ML
[8]; [16]
  Fungal Growth: 1.12 × 10^4 CFU/ML
[8]; [17]
  Fungal Growth: 1.28 × 10^4 CFU/ML
[8]; [18]
  Fungal Growth: 9.35 × 10^3 CFU/ML
[8]; [19]
  Fungal Growth: 1.23 × 10^4 CFU/ML
[8]; [20]
  Fungal Growth: 1.80 × 10^4 CFU/ML
[8]; [21]
  Fungal Growth: 6.50 × 10^3 CFU/ML
[8]; [22]
  Fungal Growth: 7.50 × 10^3 CFU/ML
[8]; [23]
  Fungal Growth: 3.35 × 10^3 CFU/ML
[8]; [24]
  Fungal Growth: 8.70 × 10^2 CFU/ML
[8]; [25]
  Fungal Growth: 5.00 × 10^1 CFU/ML
[8]; [26]
  Fungal Growth: 6.50 × 10^1 CFU/ML
[8]; [27]
  Fungal Growth: 7.50 × 10^1 CFU/ML
